Test system: E. coli 12140
Assay: In vivo mouse protection, E. coli 12140
Settings: Escherichia coli, po, E. coli 12140, p.o.
Excerpt: Compound names corresponding to numbers are given in the experimental section. For comparative purposes, data for cephamandole, which is 7-mandelamido-3-(1-methyltetrazol-5-ylthiomethyl)-3-cephem-4-carboxylic acid, is also given in Tables 1 and 2.

With `N[C@@H](C(=O)NC1C(=O)N2C(C(=O)O)=C(CSc3nnnn3CC(=O)O)CS[C@H]12)c1ccc(O)cc1` (stereo partly drawn) [II, 7-(D-α-Amino-4-hydroxyphenylacetamido)-3-(1-carboxymethyl-tetrazol-5-ylthiomethyl)-3-cephem-4-carboxylic acid] as the molecule, how does the ED50 read?
Its ED50 is 200 mg/kg.

From patent publication US4286089A, “7-Acyl-3-(substituted tetrazolyl thiomethyl)cephalosporins” (SmithKline Corporation, priority 1974, dated 1981)
